Experimental data as given in US11759430B2, “Active substance carrier comprising biopolymer” (AMOREPACIFIC CORPORATION, priority 2019, dated 2023).

System: stratum corneum of the cultured artificial skin (human epidermal keratinocytes)
Assay: Test Example 2: transdermal penetration of hydrophobic fluorescent dye (Nile red) into artificial skin
Assay type: in vitro ADME
Settings: after a night, stratum corneum average thickness 10.73 μm, FIG. 7
Protocol: The following experiment was conducted in order to investigate whether the core-shell network structure according to an exemplary embodiment of the present disclosure serves as a carrier facilitating the transdermal absorption of an active substance.
First, a core-shell network solution (Example 3) was prepared in the same manner as in Example 2 except that, instead of the red ginseng saponin as the active substance, a hydrophobic fluorescent dye (Nile red, Sigma-Aldrich) was encapsulated at a concentration of […]. The contents of zein, pullulan and pectin of Example 3 based on the total weight of the composition were 0.01 wt %, 0.02 wt % and 0.002 wt %, respectively. […]
The cells were exposed to the air by removing the medium except for the part occupied by the cells. […] After freezing using an OCT (Cryomatrix, Thermo Scientific) and slicing to a thickness of 10 μm, the frozen sections were imaged with a fluorescence microscope (BX53, Olympus, Japan) and a microscopic digital camera (DP72, Olympus, Japan). […] To compare the effect of the present disclosure, the stratum corneum of the skin was treated only with a hydrophobic fluorescent dye in Comparative Example 3, and the degree of penetration of the hydrophobic fluorescent dye was analyzed in the same manner.

penetration depth of the dye into the stratum corneum, on average: about 3.62 μm
SMILES: CCN(CC)c1ccc2nc3c4ccccc4c(=O)cc-3oc2c1 [Comparative Example 3, Nile red]
